{"source": "patent US10172824B2", "about": "“Crystal forms of scutellarin aglycone and preparation thereof” (YUNNAN INSTITUTE OF MATERIA MEDICA, priority 2014, dated 2019)", "key": {"[1]": {"system": "ischemia/reperfusion rats", "assay": "Evaluation of the degree of nerve function impairment (behavior score) in MCAO ischemia/reperfusion rats", "format": "in vivo, rat", "experimental": "SD male rat was fasted one night, with free access to water. At the day of experiment, the rat was anesthetized by intraperitoneal injection of 35% chloral hydrate (350 mg/kg), and fixed on its back. The skin was incised along the neck median line to expose the carotid artery at the right side, and the internal and external carotid artery were separated. 3# nylon wire (a diameter of 0.285 mm) was inserted from the free end of the external carotid artery, introduced into the internal carotid artery from the distal end of the external carotid artery, and inserted at the artery of Willis's circle in brain, to effectively occlude the middle cerebral artery. The inserted nylon wire was 18˜20 mm away from carotid artery bifurcation. The free end of the external carotid artery and the intra cavitary nylon wire were ligated, to prevent bleeding. […] After middle cerebral artery occlusion (MCAO) for 2 h, the nylon wire was carefully drawn out from the internal carotid artery, and the internal carotid artery was subjected to reperfusion. […] The animals were grouped depending on the score of nerve function. Three groups were classified in the experiment, 15 animals for each group. […] In the sham-operated group and the model control group, an equal volume of 0.3% sodium carboxymethyl cellulose (CMC-Na) was administered. […] 2.3.1 Evaluation of the degree of nerve function impairment: the behavioral disorder of the animal was scored by double blind method at 1 h (before administration), 12 h, 24 h, 36 h, 48 h after reperfusion, according to the score standards in the following table, so as to evaluate the degree of nerve function impairment, wherein the total score is 16, the higher the score is, the more serious the degree of nerve function impairment is in the animal (Li Qian, Wang Qiujuan, Guo Qinglong, Protective effect of TQ0701-2 on cerebral ischemia reperfusion injury in rats [J]. CHINESE JOURNAL OF CLINICAL PHARMACOLOGY AND THERAPEUTICS, 2010, 15(1): 36-40.) Data was processed by the statistical analysis software SPSS11.5, and the results were expressed by x±s, and mathematical statistics were performed by using t-test for normal distribution data and using rank-sum test for skewed distribution."}, "[2]": {"system": "MCAO-induced ischemia-reperfusion rat", "assay": "Cerebral infarction percentage 48 h after reperfusion (TTC staining) in MCAO ischemia/reperfusion rats", "format": "in vivo", "experimental": "SD male rat was fasted one night, with free access to water. At the day of experiment, the rat was anesthetized by intraperitoneal injection of 35% chloral hydrate (350 mg/kg), and fixed on its back. The skin was incised along the neck median line to expose the carotid artery at the right side, and the internal and external carotid artery were separated. 3# nylon wire (a diameter of 0.285 mm) was inserted from the free end of the external carotid artery, introduced into the internal carotid artery from the distal end of the external carotid artery, and inserted at the artery of Willis's circle in brain, to effectively occlude the middle cerebral artery. The inserted nylon wire was 18˜20 mm away from carotid artery bifurcation. The free end of the external carotid artery and the intra cavitary nylon wire were ligated, to prevent bleeding. […] After middle cerebral artery occlusion (MCAO) for 2 h, the nylon wire was carefully drawn out from the internal carotid artery, and the internal carotid artery was subjected to reperfusion. […] The animals were grouped depending on the score of nerve function. Three groups were classified in the experiment, 15 animals for each group. […] In the sham-operated group and the model control group, an equal volume of 0.3% sodium carboxymethyl cellulose (CMC-Na) was administered. […] The rat was decapitated and the brain was taken 48 h after reperfusion, and was quickly frozen. The brain was cut along the coronal plane to obtain a 2 mm-thick slice. The brain slice was put in 1% TTC stain solution, and stained at 37° C. in dark by incubation for 30 min. After fixing with 10% formaldehyde solution for 1 week, the digits and images were stored in computer by digital camera imaging system. The infarction area and the whole brain area were determined by Medical Microscopic image Compute-aided Analysis System (MIAS) of Image Center of Beihang University, and the cerebral infarction percentage was calculated (the percentage of the infarction area in the whole brain area). […]"}, "[3]": {"conditions": "cited from earlier work; for substances detected in rat plasma: oral"}, "[4]": {"conditions": "compared with scutellarin; cited from earlier work"}, "[5]": {"conditions": "360 mg scutellarin orally to a subject, 5 h (blood collected at 1, 3, 5, 8 h; determined only at 5 h); cited from earlier work"}, "[6]": {"assay": "Stability of crystal forms", "conditions": "room temperature below 50° C."}}, "note": "Like-named read-outs stand apart in the source and are kept apart here.", "data": [{"smiles": "O=c1cc(-c2ccc(O)cc2)oc2cc(O)c(O)c(O)c12", "note": "[scutellarin aglycone, 5,6,7-trihydroxy-2-(4-hydroxyphenyl)-4H-benzopyran-4-one]", "values": [{"measurement": "improvement rate of nerve function disorder", "setting": "[1]; crystal form A, 45.8 mg/kg intragastric, 48 h, compared to model control group, P<0.05", "result": 34.97, "unit": "%"}, {"measurement": "Behavior score at different time after reperfusion, 1 h", "setting": "[1]; ischemia/reperfusion rats, 45.8 mg/kg, 1 h after reperfusion (before administration), total score 16, x ± s, n = 15", "result": "10.57 ± 2.22"}, {"measurement": "Behavior score at different time after reperfusion, 12 h", "setting": "[1]; ischemia/reperfusion rats, 45.8 mg/kg, 12 h after reperfusion, total score 16, x ± s, n = 15", "result": "7.96 ± 2.29"}, {"measurement": "Behavior score at different time after reperfusion, 24 h", "setting": "[1]; ischemia/reperfusion rats, 45.8 mg/kg, 24 h after reperfusion, total score 16, x ± s, n = 15", "result": "7.15 ± 2.56"}, {"measurement": "Behavior score at different time after reperfusion, 36 h", "setting": "[1]; ischemia/reperfusion rats, 45.8 mg/kg, 36 h after reperfusion, total score 16, x ± s, n = 15", "result": "6.23 ± 2.87"}, {"measurement": "Behavior score at different time after reperfusion, 48 h", "setting": "[1]; ischemia/reperfusion rats, 45.8 mg/kg, 48 h after reperfusion, total score 16, x ± s, n = 15", "result": "5.69 ± 2.67"}, {"measurement": "reducing rate of cerebral infarction area", "setting": "[2]; crystal form A, 45.8 mg/kg intragastric, compared to model control group, P<0.05", "result": 42.46, "unit": "%"}, {"measurement": "Cerebral infarction percentage (%)", "setting": "[2]; ischemia/reperfusion rats, 45.8 mg/kg, TTC stain, x ± s, n = 15", "result": "9.16 ± 0.09", "unit": "%"}, {"measurement": "Reducing rate (%)", "setting": "[2]; reduction of cerebral infarction percentage compared to the model control group, 45.8 mg/kg", "result": 42.46, "unit": "%"}, {"measurement": "substances detected in rat plasma", "setting": "[3]; 20 mg/kg scutellarin aglycone", "result": "only scutellarin was detected"}, {"measurement": "substances detected in rat plasma", "setting": "[3]; 200 mg/kg scutellarin aglycone", "result": "both scutellarin aglycone and scutellarin could be detected"}, {"measurement": "metabolic stability", "setting": "[3]; rats, intragastric, relative to scutellarin", "result": "metabolically stable relative to scutellarin"}, {"measurement": "oral absorption relative to scutellarin", "setting": "[4]", "result": "about 3 fold"}, {"measurement": "permeability in gastrointestinal tract", "setting": "[4]", "result": "higher permeability in gastrointestinal tract than scutellarin"}]}, {"smiles": "O=C(O)[C@H]1O[C@@H](Oc2cc3oc(-c4ccc(O)cc4)cc(=O)c3c(O)c2O)[C@H](O)[C@@H](O)[C@@H]1O", "note": "[scutellarin]", "values": [{"measurement": "blood concentration of scutellarin", "setting": "[5]", "result": 20, "unit": "ng/mL"}]}, {"smiles": "O=c1cc(-c2ccc(O)cc2)oc2cc(O)c(O)c(O)c12", "note": "[crystal form A, 5,6,7-trihydroxy-2-(4-hydroxyphenyl)-4H-benzopyran-4-one]", "values": [{"measurement": "stability of crystal form", "setting": "[6]", "result": "the most stable crystal forms"}]}]}
